# Measured values taken from US20060025449A1, “Use of N-substituted imino sugars for appetite suppression” (priority 2004, published 2006).
# Columns and labels:
# [1] = system: lean control and obese mice; assay: Dietary intake in lean and obese mice (compound in diet or intraperitoneal injection); assay type: in vivo, mouse
# Protocol: Dietary intake of mice on powdered diets was measured on a daily basis, by pre-weighing diet put into the feeding hoppers then weighing remaining diet daily. Diet which the mice had spilt on the floor of the cage, was carefully recovered by sieving and incorporated into the measurements. In order to facilitate measurement of dietary intake, to exclude possible effects of the bitter taste of imino sugar in the diet and also inhibitory effects on disaccharidases in the gastrointestinal tract, groups of control and obese mice five weeks old were given daily intraperitoneal injections of NB-DNJ at a dose equivalent to 2400 mg/kg/day. A further group of obese mice was given daily intraperitoneal injections for two weeks from 10 weeks old. Control mice for each group were injected with an equal volume of isotonic saline vehicle. After assessment of dietary intake over five weeks in controls and three weeks in the obese mice, a restricted diet of 3.2 g/day for controls and 4.0 g/day for the obese mice was provided to compare with the effect of intraperitoneal injection. This equated to a 30% reduction in dietary provision for both groups of mice. […] Platt et al., J Biol Chem 272, 19365-72. This hypothesis was tested by measuring dietary intake in both lean and obese mice fed on both powdered chow with or without imino sugar and with pelleted diet. To exclude any effects of the bitter taste of imino sugars and also as a means to bypass any disaccharidase inhibition in the gut, lean control and obese mice were given daily intraperitoneal injections of NB-DNJ for five and three weeks respectively. Also, a group of obese mice had NB-DNJ mini-pumps implanted and, after four weeks, when the pumps were empty, were then given intraperitoneal injections daily. This delivery route has the advantage that it allows easy assessment of dietary intake, as the mice can eat pelleted diet.
# lean control mouse = assay: Single intracerebroventricular (ICV) injection, food intake and weight change after 24 hours; assay type: in vivo
# Protocol: To investigate a central anorexigenic mechanism for weight loss in mice treated with NB-DNJ, single intracerebro-ventricular (ICV) injections were performed. The mice were assessed for food intake and weight change. Mice were anesthetized with isofluorane (4%) delivered by a vaporiser. Upon achievement of a surgical plane of anaesthesia, the animal was transferred to and secured in a Kopf small animal ultra precise stereotaxic instrument (David Kopf Instruments, Tujunga, Calif., USA) fitted with rat ear bars, mouse adaptor and mouse anaesthesia mask. A small amount of lignocaine local anaesthetic gel was applied to the ear bars to reduce any post-operative discomfort. For the remainder of the procedure, anaesthesia was maintained with 2.5% isofluorane. Lacrilube (Allergan Ltd, High Wycombe, UK) was applied to the mouse's eyes and a subcutaneous injection of the non-steroidal anti-inflammatory drug, Rimadyl (Pfizer, Sandwich, Kent, UK) was given for post-operative analgesia. For ICV injections, a small scalpel incision was made along the midline of the scalp from above the eyes to the occiput. A small hole was drilled in the skull, 1 mm lateral and 0.34 mm posterior to Bregma. 1 μl solution was slowly infused into the lateral ventricle at a depth of 2.25 mm, via a glass needle pipette pulled to a thickness of less than 100 microns at the tip. Mice were injected with 2 nmol compound (NB-DNJ, NB-DGJ or 2-deoxy glucose) in isotonic saline vehicle which was injected into controls. The incision was then closed using VetBond acrylic suture fluid (3M Animal Care Products, St Paul, Minn., USA). The whole procedure from induction of anaesthesia to full recovery lasted less than seven minutes. Mice were allowed free access to a pre-weighed quantity of RM1 pellet diet with water provided ad libitum. 24 hours following ICV injection the mice and remaining diet were weighed. To confirm a central anorectic effect of NB-DNJ, 2 nmol NB-DNJ, NB-DGJ and 2 deoxyglucose were injected directly into the lateral cerebral ventricle of lean control mouse brain (approximately 100 μM final cerebro-ventricular concentration). Mice injected with both saline vehicle and NB-DGJ ate a normal quantity of pellet diet in the following 24 hours (FIG. 9), approximately 5% less in this experiment than that seen in control mice in FIG. 7 (not statistically significant). In contrast, NB-DNJ-injected mice ate 20% less (p<0.02 for both saline and NB-DGJ) and 2-deoxy-glucose injections caused a 10% increase in feeding. 2-deoxy-glucose is a mild appetite stimulant in the short-term. Tsutsui et al., Physiol Behav 31, 493-502. In contrast, NB-DGJ had no effect, as expected.
# male C57B1/6 mice = assay: Epididymal fat pad weight, dose-response; assay type: in vivo, mouse
# Protocol: A dose-response relationship for the effect of increasing concentrations of NB-DNJ on adipose tissue in male C57B1/6 mice was determined by treating with doses ranging from 15 to 2400 mg/kg/day for 5 weeks. Mice were sacrificed and their epididymal fat pads excised and weighed. The results are expressed as a ratio of epididymal pad fat mass to total body weight.
# C57B1/6 mice = assay: Skin histology/thickness and gross dissection for white adipose tissue; assay type: in vivo, mouse
# Protocol: Six week-old control mice on a normal diet or treated with 2400 mg/kg/day NB-DNJ for four weeks (n=3 in each group), were sacrificed and hair removed by shaving followed by application of a depilatory cream. A small section of skin was excised from the same area of the back of each mouse and processed for histology. After excision, the skin was put into mini histology trays containing OCT compound (BDH Laboratory Supplies, UK) and frozen for cryo-sectioning. Cryosections (10 μm thickness) of skin were then fixed in ice-cold acetone for 30 sec and rinsed under running tap water for 1 minute before dipping briefly in Mayer's haemotoxylin (Sigma, UK). The sections were dehydrated through a rising ethanol concentration series of 70%, 80%, 95%, 100% before clearing with Histo-Clear Histological Clearing agent (National Diagnostics, […], Hull, UK) twice for 5 min. Finally, the sections of skin were mounted with cover slips and DePeX mounting medium (BDH Laboratory Supplies, UK) on glass microscope slides. Another portion of skin (5 mm^2) was taken from each mouse, placed on a microscope slide and skin thickness measured using a micrometer gauge. […] Also, after complete depilation, this group of mice had transparent skin making the visceral organs, ventrally, and the kidneys and spinal vertebrae, dorsally, clearly visible in contrast to the opaque, non-transparent skin of controls. […]
structure (smiles),measurement,setting,value
"CCCCN1C[C@H](O)[C@@H](O)[C@H](O)[C@H]1CO [NB-DNJ, N-butyldeoxynojirimycin]",reduction in food intake,"[1]; all groups of mice, pelleted or powdered diet, 2400 mg/kg/day equivalent",around 30%
same,eat less than age and sex-matched controls,"[1]; intraperitoneally injected mice, 2400 mg/kg/day equivalent",30%
same,ate less than untreated controls,[1]; lean and obese groups,up to one third less
same,ate less than saline- and NB-DGJ-injected mice,"lean control mouse; 2 nmol ICV, 24 hours",20%
same,weight change,"lean control mouse; 2 nmol ICV, 24 hours",significant weight loss
same,initial hyperphagic response,lean control mouse; first 24 hrs post icv injection,did not cause an initialhyperphagic response
same,lowest dose at which a reduction in fat pad weight is apparent,"male C57B1/6 mice; 5 weeks treatment, doses 15 to 2400 mg/kg/day",15 mg/kg/day
same,epididymal fat pad mass to total body weight,"male C57B1/6 mice; five weeks treatment, 15 to 2400 mg/kg/day",clear dose-related response
same,white adipose tissue on gross dissection,C57B1/6 mice; 2400 mg/kg/day,significant depletion of white adipose tissue
same,reduction in mouse skin thickness,"C57B1/6 mice; 2400 mg/kg/day for four weeks, six week-old mice",40%
